Consider 28 compounds from US7250269B2, “Composition for assaying glycoprotein” (Asahi Kasei Pharma Corporation, priority 2001, dated 2007).

Like-named read-outs stand apart in the source and are kept apart here.

One series has as its system Protease type-XXIV. Briefly: Screening of globulin component-selective protease inhibitors (HSA substrate with/without γ-globulin). The series is classed as biochemical, Bacillus. The note with it: additive concentration 1.0%; control 23.8. The source says:
Using protease type-XXIV (manufactured by Sigma-Aldrich Co.) having high reactivity with the HSA substrate solution, components that decrease the protease reaction with the above globulin substrate solutions were screened based on the HSA substrate solution.
In the R-1 proteolytic reagent, as the deoxycholic acid amide, bisgluconamidopropyldeoxycholamide was used; as the cholic acid amide, 3-[(3-cholamidopropyl)dimethvlammonio]propane sulfonic acid, 3-[(3-cholamidopropyl)dimethylammonio]-2-hydroxypropane sulfonic acid, or bisgluconamidopropylcholamide was used; as the quaternary ammonium salt, benzyltriethylan chloride or benzyltri-n-butylammonium chloride was used; and as quatemary ammonium salt-type cationic surfactant, lauryltrimethylammonium chloride or lauryldimethylamine oxide was used.
• 1. HSA substrate solution: Albumin Human: 40 mg/ml, GA %=10.5% [manufactured by Wako Pure Chemical Industries, Ltd., the albumin concentration in the substrate solution was assayed using an albumin assay kit (albumin II-HA Test Wako; manufactured by Wako Pure Chemical Industries, Ltd.). GA % was assayed using a glycated albumin analyzer (GAA-2000, manufactured by ARKRAY, Inc.). • 2. γ-globulin addition substrate solution, 17.0 mg/ml of γ-globulin [γ-Globulins Human (manufactured by Sigma-Aldrich Co.), Fructosamine value=34 μM] was added to the above HSA substrate solution. <Reaction Procedure>
Absorbances at a wavelength of 546 nm were measured before and after the addition of R-2. The difference of the two measurements was regarded as the absorbance change. The same procedure was conducted using distilled water instead of the substrate to prepare a blank sample. In addition, a reaction solution without the addition of the globulin-selective protease inhibitor was used as a control.
ΔA (HSA) was calculated by subtracting the absorbance change of the blank sample from the absorbance change obtained for the HSA substrate solution. ΔA(+γ-globulin) was calculated by subtracting the absorbance change of the blank sample from the absorbance change obtained for the substrate solution to which γ-globulin was added. Effect of γ-globulin addition=(ΔA(+γ-globulin)−ΔA(HSA))/ΔA(HSA)×100(%)

In a further series the test system is R-FOD-II. Kind of series: Stabilization of enzyme reacting at least with glycated amino acid. The series is classed as biochemical. As to conditions: for decrease in performance of glycated amino acid assay reagent: storage for four weeks at 37° C.; for stabilization effect on glycated amino acid assay reagent (relative sensitivity): without stabilizer 30%; for storage stability effect: stored in a liquid state in a refrigerator. The method, then: 8 μl of a sample was added to 240 μl of the proteolytic reagent incubated at 37° C. […] A relative sensitivity for the experiment using the reagent containing a stabilizer to the experiment using the reagent not containing a stabilizer was calculated assuming that ΔA0 obtained using the reagent not containing a stabilizer and used without storing is 100%.

For another series, the target named is T1, albumin (Homo sapiens, UniProt P02768).
T1 construct: from tissue; host or cells: human blood serum (healthy persons, patients; albumin purified with boric acid-immobilized resin)
Briefly: Albumin assay by BCP method after pretreatment with protein denaturing agent and/or compound having S—S bond. As to conditions: for albumin value by BCP method, sample GA: immunological method 8.1, no pretreatment 7.9; for albumin value by BCP method, sample NGA: immunological method 37.5, no pretreatment 36.1; for albumin value by BCP method, sample Blood serum of patients: immunological method 40.5, no pretreatment 36.2. The method, then: The following compounds 1)-9) were used as the protein denaturing agent and/or the compound having S—S bond in the R-1 pretreatment reagent. • 1) 6,6′-dithiodinicotinic acid: 100 mM • 2) 3,3′-dithiodipropionic acid: 100 mM • 3) 2,2′-dithiodibenzoic acid: 100 mM • 4) 4,4′-dithiodimorpholine: 100 mM • 5) DTNB (50 mM) • 6) DDD (33 mM) • 7) 2-PDS (25 mM) • 8) 4-PDS (50 mM) • 9) SDS (0.3%) • 1)-5) manufactured by Wako Pure Chemical Industries, Ltd. • 6)-9) manufactured by Dojindo Laboratories <Samples>
Glycated lbumin, non-glycated albumin, blood serum of healthy persons, and blood serum of patients were used as samples, and distilled water was used as a blank. Glycated albumin and non-glycated albumin were obtained from human blood serum, albumin was purified by known method and using a boric acid-immobilized resin.
2 μl of a sample was added to 160 μl of the pretreatment reagent incubated at 37° C. […] Absorbance at 600 nm was measured before the addition of the albumin coloring reagent and five minutes after the addition of the albumin coloring reagent. A calibration curve was prepared using distilled water and a sample with a known albumin concentration instead of the sample. A sample was separately assayed by an immune method using a latex reagent (LX reagent, Alb-II, manufactured by Eiken Chemical Co., Ltd.) as a control.

Setting [1] is: stored at 37° C. for two days, FIG. 6.
The mark [2] stands for this setting: pretreatment reagent at concentration of b299.
[3] abbreviates: pretreatment reagent at concentration of b299, immunological method 43.0, no pretreatment 38.4.

T1 sequence (P02768 25-609): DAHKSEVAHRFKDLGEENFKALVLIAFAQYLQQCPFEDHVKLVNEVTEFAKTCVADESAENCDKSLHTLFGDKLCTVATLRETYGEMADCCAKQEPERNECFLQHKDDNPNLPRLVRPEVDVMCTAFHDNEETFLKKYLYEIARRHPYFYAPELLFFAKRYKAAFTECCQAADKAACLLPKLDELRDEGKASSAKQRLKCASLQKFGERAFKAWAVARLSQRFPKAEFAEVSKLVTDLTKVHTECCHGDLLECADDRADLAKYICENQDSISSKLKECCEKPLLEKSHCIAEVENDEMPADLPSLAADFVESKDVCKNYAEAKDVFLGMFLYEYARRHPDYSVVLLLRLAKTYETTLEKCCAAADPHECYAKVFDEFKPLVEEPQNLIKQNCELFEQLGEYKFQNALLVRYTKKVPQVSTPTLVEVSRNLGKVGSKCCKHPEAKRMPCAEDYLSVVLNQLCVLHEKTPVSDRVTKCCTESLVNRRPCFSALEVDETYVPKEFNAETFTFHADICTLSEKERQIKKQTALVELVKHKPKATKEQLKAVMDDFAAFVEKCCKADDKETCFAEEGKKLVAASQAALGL

For the compound Alkylbenzyldimethylammonium chloride, in the series with Protease type-XXIV, the “Effect of γ-globulin (%)” value turned out to be 23.2%.
Take `C[C@H](N)C(=O)O` [L-alanine, L-Alanine]: in the series with R-FOD-II, the “decrease in performance of glycated amino acid assay reagent” value is recorded as “almost no decrease in performance” and the storage stability effect result is given as “one or more years”. The “stabilization effect on glycated amino acid assay reagent (relative sensitivity)” value (“stabilization effect … (relative sensitivity)” below) in the series with R-FOD-II (setting [1]) was “stabilization effect”.
Regarding `Oc1ccc2cc(SSc3ccc4cc(O)ccc4c3)ccc2c1` [Reagent 6, 2,2′-dihydroxy-6,6′-dinaphthyl disulfide], on albumin, the “effect of pretreatment on decreasing deviation from the immune method” value is listed as “particularly remarkable”. Also, at albumin (setting [2]), the “albumin value by BCP method, sample GA” value came out at 7.6; the “albumin value by BCP method, sample NGA” value is listed as 36.9; the “albumin value by BCP method, sample Blood serum of patients” value (shortened to “albumin value by BCP method … of patients”) came out at 37.7. Further, the “albumin value by BCP method, sample Blood serum of healthy parsons” value (“albumin value … of healthy parsons” below) at albumin (setting [3]) was 39.1.
As to `O=C(O)[C@@H]1CCCN1` [L-proline, L-Proline], the “stabilization effect … (relative sensitivity)” value in the series on R-FOD-II (setting [1]) is listed as “stabilization effect”.
Regarding `OC[C@@H](O)[C@@H](O)[C@H](O)[C@H](O)CO` [mannitol, Mannitol], in the series on R-FOD-II (setting [1]), the “stabilization effect … (relative sensitivity)” value is listed as “stabilization effect”.
Consider `CC[N+](CC)(CC)Cc1ccccc1.[Br-]` [Benzyltriethylammonium bromide], for which, in the series with Protease type-XXIV, the “Effect of γ-globulin (%)” value is recorded as 22.9%.
On the same count and under the same terms, in the case of `CC(CCC(=O)NCCC[N+](C)(C)CC(O)CS(=O)(=O)[O-])C1CCC2C3C(O)CC4CC(O)CCC4(C)C3CC(O)C12C` (stereo not shown) [3-[3-cholamidopropyl)dimethylammonio]-2-hydroxypropane sulfonic acid] it was 18.0%; in that of `C[N+](C)(C)Cc1ccccc1.[Br-]` [Benzyltrimethylammonium bromide], 23.1%.
Turning to `C1CN(SSN2CCOCC2)CCO1` [Reagent 4, 4,4′-dithiodimorpholine], at albumin, the “effect of pretreatment on decreasing deviation from the immune method” value is on record as “particularly remarkable”. Also, on albumin (setting [2]), the “albumin value by BCP method, sample GA” value was determined as 7.7; the “albumin value by BCP method, sample NGA” value is recorded as 39.5; the “albumin value by BCP method … of patients” value turned out to be 31.3. Moreover, the “albumin value … of healthy parsons” value on albumin (setting [3]) came to 41.3.
On to `CC(C)[C@H](N)C(=O)O` [L-valine, L-Valine], for which, in the series on R-FOD-II (setting [1]), the “stabilization effect … (relative sensitivity)” value is “stabilization effect”.
The same measure, in the same setting: the entry for `N[C@@H](CCC(=O)O)C(=O)O` [L-glutamic acid, L-Glutamic acid] is “stabilization effect”.
On the same count and under the same terms, the entry for `[Cl-].[Cl-].[Mg+2]` [magnesium chloride, Magnesium chloride] is “stabilization effect”.
Regarding `CCCCCCCCO[C@@H]1O[C@H](CO)[C@@H](O)[C@H](O)[C@H]1O` [Octylglucoside], the “Effect of γ-globulin (%)” value in the series with Protease type-XXIV turned out to be 18.5%.
Regarding `CC[N+](CC)(CC)Cc1ccccc1.[Cl-]` [Benzyltriethylammonium chloride], the “Effect of γ-globulin (%)” value in the series with Protease type-XXIV is 16.5%.
For `N.N.O=S(=O)(O)O` [ammonium sulfate, Ammonium sulfate], the “stabilization effect … (relative sensitivity)” value in the series with R-FOD-II (setting [1]) is “stabilization effect”.
For the compound `CNCC(=O)O` [sarcosine, Sarcosine], in the series on R-FOD-II, the “decrease in performance of glycated amino acid assay reagent” value was “almost no decrease in performance” and the storage stability effect entry is “one or more years”. For the same compound, in the series with R-FOD-II (setting [1]), the “strength of stabilization effect” value is reported as “particularly strong stabilization effect” and the “stabilization effect … (relative sensitivity)” value is recorded as “stabilization effect”.
For the compound `OC[C@@H](O)[C@@H](O)[C@H](O)[C@@H](O)CO` [sorbitol, Sorbitol], the “stabilization effect … (relative sensitivity)” value with R-FOD-II (setting [1]) is listed as “stabilization effect”.
For the compound `OC[C@H]1O[C@H](O[C@H]2O[C@H](CO)[C@@H](O)[C@H](O)[C@H]2O)[C@H](O)[C@@H](O)[C@@H]1O` [trehalose, Trehalose], the “stabilization effect … (relative sensitivity)” value in the series with R-FOD-II (setting [1]) is on record as “stabilization effect”.
Consider `c1ccc(SSc2ccccn2)nc1` [Reagent 7, 2,2′-dithiopyridine], for which the “effect of pretreatment on decreasing deviation from the immune method” value on albumin is listed as “particularly remarkable”. Further, on albumin (setting [2]), the “albumin value by BCP method, sample GA” value is reported as 7.8; the “albumin value by BCP method, sample NGA” value came out at 36.8; the “albumin value by BCP method … of patients” value is recorded as 36.8. For the same compound, the “albumin value … of healthy parsons” value at albumin (setting [3]) is 38.9.
On to `O=C(O)c1ccccc1SSc1ccccc1C(=O)O` [Reagent 3, 2,2′-dithiodibenzoic acid], for which the “effect of pretreatment on decreasing deviation from the immune method” value at albumin is listed as “particularly remarkable”. On albumin (setting [2]), the “albumin value by BCP method, sample GA” value worked out at 7.7; the “albumin value by BCP method, sample NGA” value came out at 38.0; the “albumin value by BCP method … of patients” value is listed as 35.0. Further, the “albumin value … of healthy parsons” value on albumin (setting [3]) amounted to 40.1.
For `c1cc(SSc2ccncc2)ccn1` [Reagent 8, 4,4′-dithiopyridine] the same measures were “particularly remarkable”, 7.5, 36.2, 36.2 and 38.8.
Turning to `NCCCC[C@H](N)C(=O)O` [L-lysine, L-Lysine], in the series with R-FOD-II (setting [1]), the “stabilization effect … (relative sensitivity)” value was “stabilization effect”.
Turning to `O=C(O)c1ccc(SSc2ccc(C(=O)O)cn2)nc1` [Reagent 1, 6,6′-dithiodinicotinic acid], the “albumin value … of healthy parsons” value on albumin stood at 38.2. Further, at albumin (setting [2]), the “albumin value by BCP method, sample GA” value is 7.6; the “albumin value by BCP method, sample NGA” value worked out at 35.6; the “albumin value by BCP method … of patients” value amounted to 36.7.
On to `O=C(O)CCSSCCC(=O)O` [Reagent 2, 3,3′-dithiodipropionic acid], for which, at albumin (setting [2]), the “albumin value by BCP method, sample GA” value is 7.9; the “albumin value by BCP method, sample NGA” value is given as 35.7; the “albumin value by BCP method … of patients” value was 37.0. Moreover, the “albumin value … of healthy parsons” value on albumin (setting [3]) stood at 37.9.
As for `CCCCCCCCCCCCOS(=O)(=O)[O-].[Na+]` [Reagent 9, sodium lauryl sulfate], on albumin, the “albumin value … of healthy parsons” value is on record as 43.7 and the “effect of pretreatment on decreasing deviation from the immune method” value is “particularly remarkable”. Further, on albumin (setting [2]), the “albumin value by BCP method, sample GA” value is recorded as 7.8; the “albumin value by BCP method, sample NGA” value is 37.4; the “albumin value by BCP method … of patients” value was 40.7.
Turning to `OC[C@H]1O[C@@](CO)(O[C@H]2O[C@H](CO)[C@@H](O)[C@H](O)[C@H]2O)[C@@H](O)[C@@H]1O` [sucrose, Sucrose], the “stabilization effect … (relative sensitivity)” value in the series on R-FOD-II (setting [1]) is “stabilization effect”.
For `NC(=O)CC[C@H](N)C(=O)O` [L-glutamine, L-Glutamine], the “stabilization effect … (relative sensitivity)” value with R-FOD-II (setting [1]) is “stabilization effect”.
With `O=C(O)c1cc(SSc2ccc([N+](=O)[O-])c(C(=O)O)c2)ccc1[N+](=O)[O-]` [Reagent 5, 5,5′-dithiobis-(2-nitrobenzoic acid)], the “effect of pretreatment on decreasing deviation from the immune method” value at albumin is “particularly remarkable”. On albumin (setting [2]), the “albumin value by BCP method, sample GA” value was 8.7; the “albumin value by BCP method, sample NGA” value is recorded as 38.4; the “albumin value by BCP method … of patients” value was 35.5. Further, the “albumin value … of healthy parsons” value at albumin (setting [3]) turned out to be 38.3.
